Experimental data taken from patent US9551710B2, “Signaling molecule involved in ultraviolet damage to skin” (Drexel University, priority 2010, dated 2017).

Assays:
[1] = system: MMP-1 expression in human dermal fibroblasts (HDFs); test: MMP-1 expression by western blot of culture supernatants of UV-exposed human dermal fibroblasts pretreated with kinase inhibitors; type: cell-based; settings: UVB 60 mJ/cm^2, medium collected 24 hours after exposure
Method: Human dermal fibroblasts AG04058 (Coriell Institute for Medical Research, Camden, N.J.) were cultured and maintained in MEM containing glucose (4.5 mg/ml), glutamine (2 mM), […], and 10% heat-inactivated fetal bovine serum. For cell transfection, Fugene 6 transfection kit (Roche, Germany) was used to deliver Syk cDNA and the Saint-Red siRNA delivery system (Synvolux Therapeutics B.V., The Netherlands) was chosen to transfect Syk siRNA and control siRNA (Santa Cruz Biotechnology Inc., Santa Cruz, Calif.) into the cells. Cells were exposed to UVB (312 nm) (60 mJ/cm^2) by a Stratalinker UV Crosslinker (Stratagene, La Jolla, Calif.). Cell supernatants were collected 24 hrs after UV exposure, and prepared for MMP-1 expression assay.
Twenty-four hours after UV exposure, the culture media of HDFs were collected for MMP-1 assay. Based on OD280 measurement, equal amounts of proteins from the supernatants were mixed with 2× sample buffer, boiled for 5 min and chilled on ice. Samples were then subjected to […] and electrophoretically transferred to nitrocellulose membrane. The membrane was blocked with 5% dry milk in washing buffer. MMP-1 was detected with anti-MMP-1 antibody, and the results were visualized by an ECL detection system. For Syk protein and MAPK activation western blot assays, cell pellets were lysed in 1× Triton X-100 lysis buffer (1% Triton X-100, 5 mmol/L Hepes—KOH, pH 7.4) in the presence of protease and phosphatase inhibitors containing 5 mM EGTA, 3 mM Na orthovanadate, 2 mM phenylmethylsulfonyl fluoride, and […] aprotinin and leupeptin (Sigma Chemical Co., St. Louis, Mo.). Following centrifugation at 12,000 rpm for 30 min at 4° C., the cleared lysates were subjected to the same procedure as that followed for MMP-1 assay. Syk protein and MAPK activation were detected with anti-Syk antibody and anti-phospho-MAPK antibodies, respectively, by western blot. For the activation of Syk kinase assay, briefly, cell lysates were precleared by incubation with protein G plus agarose (Santa Cruz Biotechnology, Inc.), and then incubated overnight at 4° C. with anti-Syk antibody. Immune complexes would bind to protein G plus agarose in the lysis buffer. The agarose beads were washed three times with lysis buffer and the adsorbed proteins were eluted into the sample buffer. Tyrosine phosphorylation of Syk kinase (Syk activation) was determined with anti-phosphotyrosine antibody by western blot.
Human fibroblast cells (AG04058) were seeded into 24-well tissue culture dishes with MEM medium one day before the assay. Specific inhibitors for each kinase were added into each different well as indicated (FIG. 4). […]
The dose-response of piceatannol inhibition was assessed in HDFs exposed to UVB (60 mJ/cm^2) (FIG. 9B).

[2] = system: UV induced apoptosis in mouse skin; settings: from cited literature; cited from earlier work

Row | Structure (SMILES) | inhibition of MMP-1 expression (western blot, image-density analysis) ([1]; piceatannol 1 μg/ml) | inhibition of MMP-1 expression (western blot, image-density analysis) ([1]; piceatannol 5 μg/ml) | inhibition of MMP-1 expression (western blot, image-density analysis) ([1]; piceatannol 10 μg/ml) | inhibition of MMP-1 expression (western blot, image-density analysis) ([1]; piceatannol 25 μg/ml) | UV induced apoptosis in mouse skin, in words [2]
1 | Oc1cc(O)cc(/C=C/c2ccc(O)c(O)c2)c1 [piceatannol] | no inhibition | no inhibition | 20% | 63% | –
2 | Oc1ccc(-c2nc(-c3ccncc3)c(-c3ccc(F)cc3)[nH]2)cc1 [SB202190] | – | – | – | – | blocked
